The subject of experiment [1] is Sympathetic Nerve Discharge. Description: Sympathetic Nerve Discharge (SND) in chloralose anesthetized cats. The note with it: for Max. Decr. SND %: maximum inhibition of sympathetic activity in dose range 0.001-1.0 mg/kg i.v., cats. Type of experiment: in vivo. The procedure: Sympathetic Nerve Discharge (SND): The i.v. mg/kg dose causing a 50% depression in SND in chloralose anesthetized cats and the maximum inhibition of sympathetic activity observed in the dose range tested (0.00 1-1.0 mg/kg i.v. ).

The nature of experiment [2]: BP SND/MAX: blood pressure of chloralose anesthetized cats. Type of experiment: in vivo. The note with it: for % BP Control: blood pressure in percent control at the dose causing 50% depression in SND, cats i.v.; for Max. Decr. BP (at SND ED50): maximum reduction in blood pressure as percent of control, 0.001-1.0 mg/kg i.v., cats. As to the method: BP SND/MAX: The blood pressure of the chloralose anesthetized cats in percent control at the dose causing 50% depression in SND and the maximum reduction in blood pressure as percent of the control blood pressure in the same animals observed in the dose range tested (0.001-1.0 mg/kg i.v.).

A short description of experiment [3]: Hypothermia in mice (s.c.). Type of experiment: in vivo. The note with it: subcutaneous, dose required to depress temperature by 2° C. in two of four mice; for ED50: Mus musculus, sc. The procedure:
Hypothermia: Starting with a dose of 30 mg/kg, four mice are injected subcutaneously with test compound. Twenty minutes later, the number of animals whose body temperature has decreased by 2° C. or more are counted. If all four animals reach criteria, the drug is considered "active", and subsequent readings are taken at 60 and 120 minutes after drug. The time for last statistically significant drug affect on mean body temperature is indicated in minutes. […] Potency is given as mg/kg ED50 (dose required to depress temperature in two of four mice) as measured by Spearman-Karber statistics.

Experiment [4] addresses T1, 5-hydroxytryptamine (5-HT1A) receptor (Bos taurus, UniProt F6Q2H9).
T1 construct: from tissue; host or cells: bovine brain homogenate
T1 sequence (F6Q2H9 1-422): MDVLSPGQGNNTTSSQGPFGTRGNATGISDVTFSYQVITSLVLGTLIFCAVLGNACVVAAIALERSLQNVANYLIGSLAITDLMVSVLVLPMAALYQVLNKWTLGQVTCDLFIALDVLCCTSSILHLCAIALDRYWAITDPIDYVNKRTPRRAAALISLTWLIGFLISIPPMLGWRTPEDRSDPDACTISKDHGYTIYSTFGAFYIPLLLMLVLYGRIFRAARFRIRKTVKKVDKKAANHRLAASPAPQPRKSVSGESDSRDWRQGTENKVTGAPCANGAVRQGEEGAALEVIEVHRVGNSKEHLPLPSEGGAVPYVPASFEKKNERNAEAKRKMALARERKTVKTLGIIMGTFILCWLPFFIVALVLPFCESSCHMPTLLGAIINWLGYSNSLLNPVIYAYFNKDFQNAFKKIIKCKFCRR
Description: Inhibition of 8-OH-DPAT binding in a bovine brain homogenate (5-HT1A binding). From the text:
Binding: Inhibition of 8-OH-DPAT binding in a bovine brain homogenate. Potency is given as nM dose required to inhibit 50% of DPAT binding (IC50). This test measures ability to bind to 5-hydroxytryptamine (5-HT1A) receptor.

In experiment [5] the test system is 5-HT1A receptor. Description: Selectivity, IC50 ratio of dopamine D2 to 5-HT1A in vitro binding. The conditions noted are these: result in words. From the text: (§1) The compounds of this invention where R1 is in 8-position in the aromatic ring are very selective 5-HT1A receptor agonists having generally little or no dopaminergic activity. […] The compound of this invention where R1 is in 5-position in the aromatic ring, on the other hand, have dopaminergic activity with little 5-HT1A agonist activity. […] These compounds are particularly effective anxiolytic and antidepressant agents. Other uses for these compounds include panic attacks, obsessive-compulsive disturbances, and senile dementia particularly the emotional disturbances seen in dementia disorders. In addition, central 5 -HT receptor activation are believed to be involved in mediating sexual behavior. These compounds would be useful to stimulate sexual activity and to alleviate impotence. The compounds of this invention are also useful to alleviate aggressive behavior, confusional delirious states.

The test system of experiment [6] is dopamine. Description: Dopamine activity (evaluation of dopamine and serotonin metabolites). The note with it: result in words.
Excerpt: as §1

For experiment [7], the system named is 5-HT1A receptor. Briefly: 5-HT1A agonist activity. The conditions noted are these: result in words.
Excerpt: as §1

For experiment [8] the following is noted: Chem. Ab., 79: 146294b; cited from earlier work.
The conditions of experiment [9]: J. Pharm. Sci., 67, 880-82 (1978); cited from earlier work.
Experiment [10] concerns dopamine receptors. The conditions noted are these: background, result in words; cited from earlier work.
The conditions of experiment [11]: some patients; result in words; cited from earlier work.
For experiment [12] the following is noted: man, low doses; result in words; cited from earlier work.
The test system of experiment [13] is dopamine autoreceptors. The conditions noted are these: background, result in words; cited from earlier work.

Where a name gives a salt, the structure may show the parent alone.

What is called ED50 is the midpoint of the dose-response relation. A lower ED50 goes with greater potency. On to `C=CCN1CC[C@@H]2c3ccccc3CC[C@@H]21.Cl` (racemic) [Example 4 Compound #1, Cis-(+-)-2,3,3a,4,5,9b-hexahydro-3-(2-propenyl)-1H-benz[e]indole hydrochloride], for which, in experiment [1] (Felis catus, iv, i.v. dose causing 50% depression in SND, chloralose anesthetized cats), the 50% effect level (ED50) was put at a dose of 0.09 mg/kg. Also, the “Max. Decr. SND %” value in experiment [1] turned out to be 0.0%. In experiment [2], the “% BP Control” value is 76% and the “Max. Decr. BP (at SND ED50)” value came out at 60%.
As a reminder, the IC50 is the concentration that gives 50% inhibition. Read a high IC50 as a need for much substance. `C=CCN1CC[C@@H]2c3c(cccc3OC)CC[C@@H]21` (racemic) [Example 4 Compound #2, cis-(+-)-2,3,3a,4,5,9b-hexahydro-9-methoxy-3-(2-propenyl)-1H-benz[e]indole hydrochloride]: the 50% effect level in experiment [3] (ED50) was put at a dose of 2.3 mg/kg. The IC50 in [4] amounted to 2.8 nM. For the same molecule, in [5], the “selectivity for the 5-HT1A receptor” value is on record as “demonstrates the selectivity for the 5-HT1A receptor”.
Turning to `C=CCN1CC[C@@H]2c3cccc(OC)c3CC[C@@H]21.Cl` (racemic) [Example 4 Compound #3, Cis-(+-)-2,3,3a,4,5,9b-hexahydro-6-methoxy-3-(2-propenyl)-1H-benz[e]indole hydrochloride], the dopamine activity entry in experiment [6] (hydrochloride) was “good selective dopamine activity”; in experiment [6] (listed as Example 4, compound #3, hydrochloride), “selective dopamine antagonist activity”. The molecule further yielded an ED50 in experiment [3] of 30 mg/kg. Besides, the IC50 in experiment [4] turned out to be 628 nM. In addition, the 5-HT1A agonist activity result in experiment [7] was “low 5-HT1A agonist activity”.
Regarding `C=CCN1[C@H](C)C[C@H]2c3c(O)cccc3CC[C@H]21` (relative stereo) [Example 2 Compound #1, (+-)-2α,3,3a,α,4,5,9b,α-hexahydro-2-methyl-3-(2-propenyl)-1H-benz[e]indol-9-ol hydrochloride], the ED50 in [3] was found to be 5.5 mg/kg. The molecule further gave a half-inhibitory concentration (IC50) in experiment [4] of 0.96 nM.
Consider `CN(C)C1CCc2ccc(O)cc2C1(C)C` (stereo not drawn) [1,1-Dimethyl-2-(N,N-dimethylamino)-7-hydroxytetralin], for which the “analgesic and intestinal movement accelerating actions” value in experiment [8] is “analgesic and intestinal movement accelerating actions”.
Consider `COc1cccc2c1CCC(NC1CC1)C2C` (stereo not drawn) [1-methyl-2-(cyclopropylamino)-5-methoxytetralin], for which the local anesthetic activity result in [9] is recorded as “local anesthetic activity”.
For the molecule `O=C1CC2(CCCC2)CC(=O)N1CCCCN1CCN(c2ncccn2)CC1` [Buspirone], in [10], the dopamine receptor antagonism entry is “antagonizes dopamine receptors at the same dose it stimulates 5-HT1A receptors”.
`CC1(C)CC(=O)N(CCCCN2CCN(c3ncccn3)CC2)C(=O)C1` [Gepirone]: the dopamine receptor antagonism entry in [10] is “dopamine antagonist properties”. Also, the “effects on depressive endpoints” value in [11] was “ameliorative effects on some depressive endpoints in some patients”.
Take `CN1CCc2cccc3c2[C@H]1Cc1ccc(O)c(O)c1-3` [apomorphine]: in experiment [12], the “anti-psychotic and anti-dyskinetic effects” value was “anti-psychotic and anti-dyskinetic effects in man”. Besides, the “activation of dopamine autoreceptors and post synaptic dopamine receptors” value in experiment [13] is on record as “able to activate the dopamine autoreceptors as well as the post synaptic dopamine receptors”.
As for “(+-)-1,2,2a,-3,4,8b-hexahydro-8-methoxy-2-(prop-2-en-1-yl)-naphtho[2, 1-B]azetidine hydrochloride [Example 5 Compound #1]”, the “SND ED50” value in experiment [1] (i.v. dose causing 50% depression in SND, chloralose anesthetized cats) was determined as 0.083 mg/kg. For the same molecule, in experiment [1], the “Max. Decr. SND %” value came to 14.0%. Further, in experiment [3], the “Hypothermia ED50” value came to 4.1 mg/kg. Besides, in experiment [4], the IC50 was 14.8 nM. In experiment [2], the “% BP Control” value was 77% and the “Max. Decr. BP (at SND ED50)” value is on record as 59%.

The record behind these values is patent publication US5491236A, “(1,2N) and (3,2N)-carbocyclic-2-amino tetralin derivatives” (The Upjohn Company, priority 1991, dated 1996).
